Values after ≈ are worked out from the molar mass of the structure shown.
Key:
Assay type in all cases: cell-based
[1] = test system: E. coli NCTC 10418; experiment: MIC human bacteria (Table 1), serial dilution in nutrient agar; conditions: Escherichia coli, NCTC10418
[2] = test system: E. coli ESS; experiment: as above; conditions: Escherichia coli; E. coli ESS; nutrient agar with 5% chocolated horse blood; read-out: MIC
[3] = test system: P. mirabilis 889; experiment: as above; conditions: Proteus mirabilis, 889
[4] = test system: K. aerogenes A; experiment: as above; conditions: Klebsiella aerogenes, nutrient agar with 5% chocolated horse blood
[5] = test system: Ps. aeruginosa 10662; experiment: as above; conditions: Pseudomonas aeruginosa, nutrient agar with 5% chocolated horse blood
[6] = test system: Pasteurella multocida 1633; experiment: as above; conditions: Pasteurella multocida, 1633
[7] = test system: Haemophilus influenzae Q1; experiment: as above; conditions: Haemophilus influenzae, Q1
[8] = test system: Haemophilus influenzae Wy21; experiment: as above; conditions: Haemophilus influenzae, WY21
[9] = test system: Bacillus subtilis 6633; experiment: as above; conditions: nutrient agar with 5% chocolated horse blood
[10] = test system: Corynebacterium xerosis 9755; experiment: as above; conditions: nutrient agar with 5% chocolated horse blood, read-out: MIC
[11] = test system: Sarcina lutea 8340; experiment: as above; conditions: Micrococcus luteus, nutrient agar with 5% chocolated horse blood, read-out: MIC
[12] = test system: Staph aureus Oxford; experiment: as above; conditions: Staphylococcus aureus, nutrient agar with 5% chocolated horse blood
[13] = test system: Staph aureus Russell; experiment: as above; conditions: Staphylococcus aureus, nutrient agar with 5% chocolated horse blood
[14] = test system: Staph aureus W2827; experiment: as above; conditions: Staphylococcus aureus, nutrient agar with 5% chocolated horse blood
[15] = test system: Strep faecalis I; experiment: as above; conditions: nutrient agar with 5% chocolated horse blood
[16] = test system: Strep pyogenes A 64/848; experiment: as above; conditions: nutrient agar with 5% chocolated horse blood
[17] = test system: Strep pyogenes B 2788; experiment: as above; conditions: nutrient agar with 5% chocolated horse blood
[18] = test system: Strep pyogenes C 2761; experiment: as above; conditions: nutrient agar with 5% chocolated horse blood
[19] = test system: E. coli NCTC 10418; experiment: MIC veterinary bacteria (Table 2), serial dilution in agar; conditions: Escherichia coli, NCTC10418
[20] = test system: E. coli E1; experiment: as above; conditions: Escherichia coli, diagnostic sensitivity test agar
[21] = test system: S. dublin S7; experiment: as above; conditions: Salmonella enterica, diagnostic sensitivity test agar
[22] = test system: S. typhimurium S18; experiment: as above; conditions: Salmonella enterica, diagnostic sensitivity test agar
[23] = test system: Bord bronchiseptica B08; experiment: as above; conditions: diagnostic sensitivity test agar
[24] = test system: Bord bronchiseptica B09; experiment: as above; conditions: diagnostic sensitivity test agar
[25] = test system: Past multocida PA1; experiment: as above; conditions: diagnostic sensitivity test agar
[26] = test system: Past multocida PA2; experiment: as above; conditions: diagnostic sensitivity test agar
[27] = test system: Past haemolytica PA5; experiment: as above; conditions: diagnostic sensitivity test agar
[28] = test system: Erysipelothrix rhusiopathiae NCTC 8163; experiment: as above; conditions: NCTC8163; Erysipelothrix rhusiopathiae NCTC 8163; diagnostic sensitivity test agar; read-out: MIC
[29] = test system: Corynebacterium pyogenes CY1; experiment: as above; conditions: Trueperella pyogenes, diagnostic sensitivity test agar
[30] = test system: Staph aureus B4 (pen. resis); experiment: as above; conditions: Staphylococcus aureus
[31] = test system: Staph aureus 152 (pen. sens); experiment: as above; conditions: Staphylococcus aureus, diagnostic sensitivity test agar
[32] = test system: Staph aureus Oxford; experiment: as above; conditions: Staphylococcus aureus
[33] = test system: Strep suis (group D) SPS11; experiment: as above; conditions: diagnostic sensitivity test agar
[34] = test system: Strep uberis SPU1; experiment: as above; conditions: diagnostic sensitivity test agar
[35] = test system: Strep dysgalaciae SPD1; experiment: as above; conditions: diagnostic sensitivity test agar
[36] = test system: Strep agalactiae SPA1; experiment: as above; conditions: diagnostic sensitivity test agar
[37] = test system: M dispar H225; experiment: in vitro anti-mycoplasmal MIC, Friis' broth (Table 3)
Experimental: (§1) The minimum inhibitory concentrations (MIC) of the examples were determined by either:
(§2) (i) in Friis' broth using microtitre plates, by modification of the metabolic-inhibition test (Taylor-Robinson, Post Frad, Med. J., 1967, 43, 100).

[38] = test system: M dispar NCTC 10125; experiment: as above
Experimental: as §1, §2

[39] = test system: M fermentans MWKL4; experiment: as above
Experimental: as §1, §2

[40] = test system: M pneumoniae 427a; experiment: as above
Experimental: as §1, §2

[41] = test system: M pneumoniae ATCC 15492; experiment: as above
Experimental: as §1, §2

[42] = test system: M pulmonis JB; experiment: as above
Experimental: as §1, §2

[43] = test system: M suipneumoniae J2206/183b; experiment: as above
Experimental: as §1, §2

[44] = test system: M suipneumoniae Str 11; experiment: as above
Experimental: as §1, §2

[45] = test system: M alkalescens NCTC 10135; experiment: in vitro anti-mycoplasmal MIC, Friis' agar (Table 3)
Experimental: as §1
(§3) or (ii) by serial dilution in Friis' agar medium.

[46] = test system: M arthritidis ATCC 14124; experiment: as above
Experimental: as §1, §3

[47] = test system: M bovigenitalium ATCC 14173; experiment: as above
Experimental: as §1, §3

[48] = test system: M fermentans MWKL4; experiment: as above
Experimental: as §1, §3

[49] = test system: M gallisepticum S6; experiment: as above
Experimental: as §1, §3

[50] = test system: M hyorhinis ATCC 23234; experiment: as above
Experimental: as §1, §3

[51] = test system: M hyosynoviae ATCC 25591; experiment: as above
Experimental: as §1, §3

[52] = test system: M pneumoniae 427a; experiment: as above
Experimental: as §1, §3

[53] = test system: M pneumoniae ATCC 15492; experiment: as above
Experimental: as §1, §3

[54] = test system: M pulmonis JB; experiment: as above
Experimental: as §1, §3

[55] = test system: M synoviae ATCC 25204; experiment: as above
Experimental: as §1, §3

SMILES: C/C(=C\C(=O)OCCCS(N)(=O)=O)CC1OCC(CC2OC2C(C)C(C)O)C(O)C1O (stereo not shown) [Example 1, 3-Sulphamoylpropyl monate A]
- MIC [1]: > 100 µg/mL
- MIC [2]: 25 µg/mL (≈ 53.7 µM)
- MIC [3]: 100 µg/mL (≈ 215 µM)
- MIC [4]: > 100 µg/mL
- MIC [5]: > 100 µg/mL
- MIC [6]: 0.5 µg/mL (≈ 1.07 µM)
- MIC [7]: 0.05 µg/mL (≈ 0.107 µM)
- MIC [8]: 0.05 µg/mL (≈ 0.107 µM)
- MIC [9]: 10 µg/mL (≈ 21.5 µM)
- MIC [10]: > 100 µg/mL
- MIC [11]: > 100 µg/mL
- MIC [12]: 50 µg/mL (≈ 107 µM)
- MIC [13]: 50 µg/mL (≈ 107 µM)
- MIC [14]: 100 µg/mL (≈ 215 µM)
- MIC [15]: > 100 µg/mL
- MIC [16]: 0.5 µg/mL (≈ 1.07 µM)
- MIC [17]: 2.5 µg/mL (≈ 5.37 µM)
- MIC [18]: 2.5 µg/mL (≈ 5.37 µM)
- MIC [19]: > 80 µg/mL
- MIC [20]: > 80 µg/mL
- MIC [21]: > 80 µg/mL
- MIC [22]: > 80 µg/mL
- MIC [23]: 80 µg/mL (≈ 172 µM)
- MIC [24]: 20 µg/mL (≈ 43 µM)
- MIC [25]: 0.625 µg/mL (≈ 1.34 µM)
- MIC [26]: 0.156 µg/mL (≈ 0.335 µM)
- MIC [27]: 10 µg/mL (≈ 21.5 µM)
- MIC [28]: > 80 µg/mL
- MIC [29]: > 80 µg/mL
- MIC [30]: 40 µg/mL (≈ 85.9 µM)
- MIC [31]: 20 µg/mL (≈ 43 µM)
- MIC [32]: 40 µg/mL (≈ 85.9 µM)
- MIC [33]: 80 µg/mL (≈ 172 µM)
- MIC [34]: 1.25 µg/mL (≈ 2.68 µM)
- MIC [35]: 2.5 µg/mL (≈ 5.37 µM)
- MIC [36]: 2.5 µg/mL (≈ 5.37 µM)
- MIC [37]: 0.039 µg/mL (≈ 0.0838 µM)
- MIC [38]: 0.078 µg/mL (≈ 0.168 µM)
- MIC [39]: 0.039 µg/mL (≈ 0.0838 µM)
- MIC [40]: 2.5 µg/mL (≈ 5.37 µM)
- MIC [41]: 2.5 µg/mL (≈ 5.37 µM)
- MIC [42]: 0.02 µg/mL (≈ 0.043 µM)
- MIC [43]: 0.312 µg/mL (≈ 0.67 µM)
- MIC [44]: 0.078 µg/mL (≈ 0.168 µM)
- MIC [45]: 0.039 µg/mL (≈ 0.0838 µM)
- MIC [46]: > 10 µg/mL
- MIC [47]: 0.039 µg/mL (≈ 0.0838 µM)
- MIC [48]: 0.078 µg/mL (≈ 0.168 µM)
- MIC [49]: > 10 µg/mL
- MIC [50]: 0.312 µg/mL (≈ 0.67 µM)
- MIC [51]: 0.156 µg/mL (≈ 0.335 µM)
- MIC [52]: 2.5 µg/mL (≈ 5.37 µM)
- MIC [53]: 5 µg/mL (≈ 10.7 µM)
- MIC [54]: 0.039 µg/mL (≈ 0.0838 µM)
- MIC [55]: < 0.02 µg/mL

Source: US4312867A, “Antibacterial compounds, processes for their preparation and compositions containing them” (Beecham Group Limited, priority 1979, dated 1982)
